Tests used:
[1] = tested on: A3T3 (DNA, duplex) CGCGAAATTTCGCG; assay: ITC; conditions: Na+ (10 mM sodium phosphate, 10 mM NaCl); buffer A pH 7.5, 25 °C; TC into 40 μM A3T3; single site model
[2] = tested on: (AT)2 (DNA, duplex) CGCGATATCGCG; assay: absorption and fluorescence titration; conditions: Na+ (10 mM sodium phosphate, 10 mM NaCl); buffer A pH 7.5, 25 °C; minor groove at 1:1, intercalation at low [DNA]/[TC]
[3] = tested on: t-(AT)2 (DNA, duplex) ATATCGCGATAT; assay: absorption and fluorescence titration; conditions: Na+ (10 mM sodium phosphate, 10 mM NaCl); buffer A pH 7.5, 25 °C; mixed intercalation and incomplete groove binding
[4] = tested on: AT (DNA, duplex) CGCGATCGCG; assay: absorption and fluorescence titration; conditions: Na+ (10 mM sodium phosphate, 10 mM NaCl); buffer A pH 7.5, 25 °C; mixed intercalation and incomplete groove binding
[5] = tested on: CG (DNA, duplex) CGCGCGCGCGCG; assay: absorption titration, NMR line broadening; conditions: Na+ (10 mM sodium phosphate, 10 mM NaCl); buffer A pH 7.5, 25 °C; intercalation only, almost no fluorescence enhancement
[6] = tested on: A2T2 (DNA, duplex) CGCGAATTCGCG; assay: absorption, fluorescence and NMR titration; conditions: Na+ (10 mM sodium phosphate, 10 mM NaCl); buffer A pH 7.5, 25 °C; minor groove at 1:1, intercalation at low [DNA]/[TC]

Kd [1]: 2900 nM
binding [2]: yes
binding [3]: yes
binding [4]: yes
binding [5]: yes
binding [6]: yes
Structure (SMILES): CCN(CC)c1ccc2cc(/C=C/c3sc4ccccc4[n+]3C)c(=O)oc2c1
